According to patent publication US12187742B2 (XRAD Therapeutics, Inc., priority 2018, dated 2025):
pIC50: −log10 of the molar value.

Legend:
ATM = ATM (Homo sapiens (Human), UniProt Q13315); assay: ATM in Cell Western Assay (pKAP1 in etoposide-treated MCF-7 cells); type: cell-based; settings: MCF-7 cells, etoposide 100 μM, 1 hr, pKAP1 readout
In short: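 Cells received compounds in a 10-dose, 3-fold series from a 1 μM final top concentration, then 100 μM etoposide, for 1 hr at 37° C. They were then fixed with paraformaldehyde and permeabilized with 0.1% Triton X-100. After immunostaining, plates were scanned on an infrared imager.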

DNA-PK = DNA-PK (Homo sapiens (Human), UniProt P78527); assay: DNA-PK Enzyme-Linked Immunosorbent Assay (phosphorylation of GST-p53 (1-101) peptide); type: biochemical; settings: ELISA, ATP 20 μM
In short: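 ELISA with plate-bound GST-p53 (1-101) phosphorylated by DNA-PK (0.1 μg/mL final) with 20 μM ATP for 1 h at 25 °C. Compounds tested over 10 3-fold doses from 100 nM top final. Phospho-p53 Ser15 detected by antibody, HRP and TMB, absorbance at 450 nm.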

Sequence of ATM (Q13315 whole entry): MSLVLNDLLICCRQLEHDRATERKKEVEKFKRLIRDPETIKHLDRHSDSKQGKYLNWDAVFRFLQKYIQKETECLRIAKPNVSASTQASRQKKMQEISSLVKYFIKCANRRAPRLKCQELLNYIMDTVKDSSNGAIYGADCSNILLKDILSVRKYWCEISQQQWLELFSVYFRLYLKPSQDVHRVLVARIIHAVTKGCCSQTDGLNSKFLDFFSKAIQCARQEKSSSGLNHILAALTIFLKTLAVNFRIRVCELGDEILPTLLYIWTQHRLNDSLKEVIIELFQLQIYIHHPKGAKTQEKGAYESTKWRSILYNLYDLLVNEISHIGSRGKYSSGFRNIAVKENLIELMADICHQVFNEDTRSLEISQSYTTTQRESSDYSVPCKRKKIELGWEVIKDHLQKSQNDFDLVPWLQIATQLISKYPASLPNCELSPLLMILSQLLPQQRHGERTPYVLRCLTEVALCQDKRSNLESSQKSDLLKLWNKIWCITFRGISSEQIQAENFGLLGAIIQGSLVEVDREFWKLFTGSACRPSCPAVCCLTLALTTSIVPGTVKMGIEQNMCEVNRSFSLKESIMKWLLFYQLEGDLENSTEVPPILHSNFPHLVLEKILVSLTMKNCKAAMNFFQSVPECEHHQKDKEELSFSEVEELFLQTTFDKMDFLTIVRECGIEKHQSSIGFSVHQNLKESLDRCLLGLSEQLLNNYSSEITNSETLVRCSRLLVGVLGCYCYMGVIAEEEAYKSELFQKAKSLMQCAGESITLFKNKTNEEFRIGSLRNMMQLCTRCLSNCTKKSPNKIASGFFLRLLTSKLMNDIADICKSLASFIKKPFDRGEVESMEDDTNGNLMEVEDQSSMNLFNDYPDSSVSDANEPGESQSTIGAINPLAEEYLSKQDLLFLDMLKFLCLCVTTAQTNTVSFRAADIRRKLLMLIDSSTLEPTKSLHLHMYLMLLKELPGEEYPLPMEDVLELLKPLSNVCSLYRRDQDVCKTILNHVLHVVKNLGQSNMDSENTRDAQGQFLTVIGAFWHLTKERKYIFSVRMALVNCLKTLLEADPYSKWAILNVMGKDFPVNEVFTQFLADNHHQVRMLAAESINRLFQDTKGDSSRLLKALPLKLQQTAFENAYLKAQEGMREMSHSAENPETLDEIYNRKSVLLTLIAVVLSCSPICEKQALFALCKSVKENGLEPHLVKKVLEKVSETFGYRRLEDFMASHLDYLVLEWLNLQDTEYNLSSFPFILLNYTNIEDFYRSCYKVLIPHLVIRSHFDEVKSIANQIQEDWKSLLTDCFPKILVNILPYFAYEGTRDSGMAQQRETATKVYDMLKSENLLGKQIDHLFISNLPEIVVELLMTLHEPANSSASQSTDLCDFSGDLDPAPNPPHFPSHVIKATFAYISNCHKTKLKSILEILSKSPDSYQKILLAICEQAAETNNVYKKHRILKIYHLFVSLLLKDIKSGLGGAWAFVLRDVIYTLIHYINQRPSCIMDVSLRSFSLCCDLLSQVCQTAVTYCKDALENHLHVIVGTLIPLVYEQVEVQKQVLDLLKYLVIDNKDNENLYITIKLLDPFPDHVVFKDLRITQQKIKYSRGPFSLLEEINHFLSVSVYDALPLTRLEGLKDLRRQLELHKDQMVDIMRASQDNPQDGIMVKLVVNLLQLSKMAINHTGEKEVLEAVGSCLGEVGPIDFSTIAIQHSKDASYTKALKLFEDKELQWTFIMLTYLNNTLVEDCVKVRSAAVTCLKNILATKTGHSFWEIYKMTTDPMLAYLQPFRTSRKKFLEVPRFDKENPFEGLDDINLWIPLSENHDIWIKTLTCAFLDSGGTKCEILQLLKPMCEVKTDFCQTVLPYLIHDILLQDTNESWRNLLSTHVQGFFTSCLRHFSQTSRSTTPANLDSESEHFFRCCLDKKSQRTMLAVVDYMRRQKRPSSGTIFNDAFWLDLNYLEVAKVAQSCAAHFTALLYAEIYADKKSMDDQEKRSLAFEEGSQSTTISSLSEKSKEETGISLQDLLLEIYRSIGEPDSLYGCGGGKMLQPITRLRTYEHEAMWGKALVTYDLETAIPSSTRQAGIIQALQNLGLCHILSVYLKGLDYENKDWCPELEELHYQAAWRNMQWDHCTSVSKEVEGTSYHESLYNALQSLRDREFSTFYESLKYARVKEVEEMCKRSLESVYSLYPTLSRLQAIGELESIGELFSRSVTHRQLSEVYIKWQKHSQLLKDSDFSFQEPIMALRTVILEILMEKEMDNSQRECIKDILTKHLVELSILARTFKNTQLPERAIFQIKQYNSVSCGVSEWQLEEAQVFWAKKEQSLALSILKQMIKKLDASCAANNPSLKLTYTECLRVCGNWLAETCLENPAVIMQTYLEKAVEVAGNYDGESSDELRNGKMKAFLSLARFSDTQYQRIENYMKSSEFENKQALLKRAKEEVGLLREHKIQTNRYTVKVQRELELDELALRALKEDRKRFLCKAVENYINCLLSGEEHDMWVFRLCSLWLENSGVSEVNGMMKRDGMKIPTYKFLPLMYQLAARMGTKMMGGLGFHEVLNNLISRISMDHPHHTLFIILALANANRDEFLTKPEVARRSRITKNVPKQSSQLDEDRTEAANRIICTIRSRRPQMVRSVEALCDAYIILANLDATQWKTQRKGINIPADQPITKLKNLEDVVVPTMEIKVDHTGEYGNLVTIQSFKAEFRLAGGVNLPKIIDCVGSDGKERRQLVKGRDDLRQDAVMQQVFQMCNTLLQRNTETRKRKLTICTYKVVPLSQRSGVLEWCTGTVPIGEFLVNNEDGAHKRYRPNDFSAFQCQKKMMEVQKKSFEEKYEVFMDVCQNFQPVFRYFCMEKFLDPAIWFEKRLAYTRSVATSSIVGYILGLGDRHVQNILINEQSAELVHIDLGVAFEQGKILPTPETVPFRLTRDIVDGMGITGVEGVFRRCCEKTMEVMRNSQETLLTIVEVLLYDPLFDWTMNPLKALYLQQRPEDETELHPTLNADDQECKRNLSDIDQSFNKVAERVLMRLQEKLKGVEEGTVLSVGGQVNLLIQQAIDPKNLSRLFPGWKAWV

pIC50 (ATM)	pIC50 (DNA-PK)	Structure (SMILES)
7.00 to 9.00	9.00 to 9.30	CN1C(=O)C2(CCC2)c2c1cnc1ccc(-c3cnc(OCCCN4CCC(F)C4)c(NS(C)(=O)=O)c3)cc21 (stereo not shown) [Example 279, N-(2-(3-(3-Fluoropyrrolidin-1-yl)propoxy)-5-(3′-methyl-2′-oxo-2′,3′-dihydrospiro[cyclobutane-1,1′-pyrrolo[2,3-c]quinolin]-8′-yl)pyridin-3-yl)methanesulfonamide]
7.00 to 9.00	9.00 to 9.30	COC1CCCN(CCCOc2ncc(-c3ccc4ncc5c(c4c3)C3(CCC3)C(=O)N5C)cc2NS(C)(=O)=O)C1 (stereo not shown) [Example 280, N-(2-(3-(3-Methoxypiperidin-1-yl)propoxy)-5-(3′-methyl-2′-oxo-2′,3′-dihydrospiro[cyclobutane-1,1′-pyrrolo[2,3-c]quinolin]-8′-yl)pyridin-3-yl)methanesulfonamide]
7.00 to 9.00	9.00 to 9.30	CC(C)NCCOc1ncc(-c2ccc3ncc4c(c3c2)C2(CCC2)C(=O)N4C)cc1NS(C)(=O)=O [Example 281, N-(2-(2-(Isopropylamino)ethoxy)-5-(3′-methyl-2′-oxo-2′,3′-dihydrospiro [cyclobutane-1,1′-pyrrolo[2,3-c]quinolin]-8′-yl)pyridin-3-yl)methanesulfonamide]
7.00 to 9.00	> 9.30	CN1C(=O)C2(CCC2)c2c1cnc1ccc(-c3cnc(OCCCN4CCCC(F)C4)c(NS(C)(=O)=O)c3)cc21 (stereo not shown) [Example 282, N-(2-(3-(3-Fluoropiperidin-1-yl)propoxy)-5-(3′-methyl-2′-oxo-2′,3′-dihydrospiro[cyclobutane-1,1′-pyrrolo[2,3-c]quinolin]-8′-yl)pyridin-3-yl)methanesulfonamide]
7.00 to 9.00	9.00 to 9.30	COC1CCN(CCCOc2ncc(-c3ccc4ncc5c(c4c3)C3(CCC3)C(=O)N5C)cc2NS(C)(=O)=O)C1 (stereo not shown) [Example 283, N-(2-(3-(3-Methoxypyrrolidin-1-yl)propoxy)-5-(3′-methyl-2′-oxo-2′,3′-dihydrospiro[cyclobutane-1,1′-pyrrolo[2,3-c]quinolin]-8′-yl)pyridin-3-yl)methanesulfonamide]
7.00 to 9.00	7.00 to 9.00	CN1CCC(c2ncc(-c3ccc4ncc5c(c4c3)C3(CCC3)C(=O)N5C)cc2NS(C)(=O)=O)CC1 [Example 285, N-(5-(3′-Methyl-2′-oxo-2′,3′-dihydrospiro[cyclobutane-1,1′-pyrrolo[2,3-c]quinolin]-8′-yl)-2-(1-methylpiperidin-4-yl)pyridin-3-yl)methanesulfonamide]
7.00 to 9.00	> 9.30	CN1C(=O)C2(CCC2)c2c1cnc1ccc(-c3cnc(OCCCN4CCC(F)CC4)c(NS(C)(=O)=O)c3)cc21 [Example 286, N-(2-(3-(4-Fluoropiperidin-1-yl)propoxy)-5-(3′-methyl-2′-oxo-2′,3′-dihydrospiro[cyclobutane-1,1′-pyrrolo[2,3-c]quinolin]-8′-yl)pyridin-3-yl)methanesulfonamide]

More lines, now with the values behind:

Structure (SMILES)	pIC50 (ATM)	pIC50 (DNA-PK)
CCNCCOc1ncc(-c2ccc3ncc4c(c3c2)C2(CCC2)C(=O)N4C)cc1NS(C)(=O)=O [Example 248, N-(2-(2-(Ethylamino)ethoxy)-5-(3′-methyl-2′-oxo-2′,3′-dihydrospiro[cyclobutane-1,1′-pyrrolo[2,3-c]quinolin]-8′-yl)pyridin-3-yl) methanesulfonamide]	7.00 to 9.00	> 9.30
CNCCOc1ncc(-c2ccc3ncc4c(c3c2)C2(CCC2)C(=O)N4C)cc1NS(C)(=O)=O [Example 249, N-(5-(3′-Methyl-2′-oxo-2′,3′-dihydrospiro[cyclobutane-1,1′-pyrrolo[2,3-c]quinolin]-8′-yl)-2-(2-(methylamino)ethoxy)pyridin-3-yl) methanesulfonamide]	7.00 to 9.00	> 9.30
CNCCOc1ncc(-c2ccc3ncc4c(c3c2)C2(CCC2)C(=O)N4C)cc1NS(=O)(=O)c1ccccc1 [Example 250, N-(5-(3′-Methyl-2′-oxo-2′,3′-dihydrospiro[cyclobutane-1,1′-pyrrolo[2,3-c]quinolin]-8′-yl)-2-(2-(methylamino)ethoxy)pyridin-3-yl) benzenesulfonamide]	7.00 to 9.00	> 9.30
CN1C(=O)C2(CCC2)c2c1cnc1ccc(-c3cnc(N4CCC(N5CCCC(F)(F)C5)CC4)c(NS(C)(=O)=O)c3)cc21 [Example 251, N-(2-(3,3-Difluoro-[1,4′-bipiperidin]-1′-yl)-5-(3′-methyl-2′-oxo-2′,3′-dihydrospiro[cyclobutane-1,1′-pyrrolo[2,3-c]quinolin]-8′-yl)pyridin-3-yl)methanesulfonamide]	7.00 to 9.00	9.00 to 9.30
CN1C(=O)C2(CCC2)c2c1cnc1ccc(-c3cnc(OCCCN4CCCCC4)c(NS(=O)(=O)c4cccnc4)c3)cc21 [Example 252, N-(5-(3′-Methyl-2′-oxo-2′,3′-dihydrospiro [cyclobutane-1,1′-pyrrolo [2,3-c]quinolin]-8′-yl)-2-(3-(piperidin-1-yl)propoxy)pyridin-3-yl)pyridine-3-sulfonamide]	7.00 to 9.00	7.00 to 9.00
CN(C)CCCOc1ncc(-c2ccc3ncc4c(c3c2)C2(CCC2)C(=O)N4C)cc1NS(=O)(=O)C1CCC1 [Example 253, N-(2-(3-(Dimethylamino)propoxy)-5-(3′-methyl-2′-oxo-2′,3′-dihydrospiro [cyclobutane-1,1′-pyrrolo[2,3-c]quinolin]-8′-yl)pyridin-3-yl) cyclobutanesulfonamide]	7.00 to 9.00	7.00 to 9.00
CC(C)NCCOc1ncc(-c2ccc3ncc4c(c3c2)C2(CCCC2)C2=NCCN24)cc1NS(C)(=O)=O [Example 257, N-(5-(8′,9′-Dihydrospiro[cyclopentane-1,11′-imidazo[1′,2′:1,5]pyrrolo[2.3-c]quinolin]-2′-yl)-2-(2-(isopropylamino)ethoxy)pyridin-3-yl)methanesulfonamide]	7.00 to 9.00	> 9.30
CN(C)CCCOc1ncc(-c2ccc3ncc4c(c3c2)C2(CC(F)C2)C(=O)N4C)cc1NS(C)(=O)=O (stereo not shown) [Example 262, N-(2-(3-(Dimethylamino)propoxy)-5-(3-fluoro-3′-methyl-2′-oxo-2′,3′-dihydrospiro[cyclobutane-1,1′-pyrrolo[2,3-c]quinolin]-8′-yl)pyridin-3-yl)methanesulfonamide]	7.00 to 9.00	7.00 to 9.00
CN(C)CCCOc1ncc(-c2ccc3ncc4c(c3c2)C2(CCC2)C(=O)N4C)cc1NS(=O)(=O)CCN(C)C [Example 264, 2-(Dimethylamino)-N-(2-(3-(dimethylamino)propoxy)-5-(3′-methyl-2′-oxo-2′,3′-dihydrospiro[cyclobutane-1,1′-pyrrolo[2,3-c]quinolin]-8′-yl)pyridin-3-yl)ethane-1-sulfonamide]	9.00 to 9.30	7.00 to 9.00
COCCS(=O)(=O)Nc1cc(-c2ccc3ncc4c(c3c2)C2(CCC2)C(=O)N4C)cnc1OCCCN(C)C [Example 266, N-(2-(3-(Dimethylamino)propoxy)-5-(3′-methyl-2′-oxo-2′,3′-dihydrospiro [cyclobutane-1,1′-pyrrolo[2,3-c]quinolin]-8′-yl)pyridin-3-yl)-2-methoxyethane-1-sulfonamide]	7.00 to 9.00	7.00 to 9.00
CN(C)CCCOc1ncc(-c2ccc3ncc4c(c3c2F)C2(CCC2)C(=O)N4C)cc1NS(C)(=O)=O [Example 268, N-(2-(3-(Dimethylamino)propoxy)-5-(9′-fluoro-3′-methyl-2′-oxo-2′,3′-dihydrospiro[cyclobutane-1,1′-pyrrolo[2,3-c]quinolin]-8′-yl)pyridin-3-yl)methanesulfonamide]	7.00 to 9.00	7.00 to 9.00
CN1C(=O)C2(CCC2)c2c1cnc1ccc(-c3cnc(OCCCN4CCCC(O)C4)c(NS(C)(=O)=O)c3)cc21 (stereo not shown) [Example 270, N-(2-(3-(3-Hydroxypiperidin-1-yl)propoxy)-5-(3′-methyl-2′-oxo-2′,3′-dihydrospiro[cyclobutane-1,1′-pyrrolo[2,3-c]quinolin]-8′-yl)pyridin-3-yl)methanesulfonamide]	7.00 to 9.00	7.00 to 9.00
CN(C)CCCOc1ncc(-c2ccc3ncc4c(c3c2)C2(CCC2)C(=O)N4C)cc1NS(=O)(=O)c1ccsc1 [Example 272, N-(2-(3-(Dimethylamino)propoxy)-5-(3′-methyl-2′-oxo-2′,3′-dihydrospiro [cyclobutane-1,1′-pyrrolo[2,3-c]quinolin]-8′-yl)pyridin-3-yl) thiophene-3-sulfonamide]	9.00 to 9.30	7.00 to 9.00
CN(C)CCCOc1ncc(-c2ccc3ncc4c(c3c2)C2(CCC2)C(=O)N4C)cc1NS(=O)(=O)CC#N [Example 273, 1-Cyano-N-(2-(3-(dimethylamino)propoxy)-5-(3′-methyl-2′-oxo-2′,3′-dihydrospiro[cyclobutane-1,1′-pyrrolo[2,3-c]quinolin]-8′-yl)pyridin-3-yl)methanesulfonamide]	7.00 to 9.00	> 9.30
CN1C(=O)C2(CCC2)c2c1cnc1ccc(-c3cnc(N4CC(N5CCCC5)C4)c(NS(C)(=O)=O)c3)cc21 [Example 277, N-(5-(3′-Methyl-2′-oxo-2′,3′-dihydrospiro[cyclobutane-1,1′-pyrrolo[2,3-c]quinolin]-8′-yl)-2-(3-(pyrrolidin-1-yl)azetidin-1-yl)pyridin-3-yl)methanesulfonamide]	7.00 to 9.00	7.00 to 9.00
COCCN(C)CCCOc1ncc(-c2ccc3ncc4c(c3c2)C2(CCC2)C(=O)N4C)cc1NS(C)(=O)=O [Example 278, N-(2-(3-((2-Methoxyethyl)(methyl)amino)propoxy)-5-(3′-methyl-2′-oxo-2′,3′-dihydrospiro[cyclobutane-1,1′-pyrrolo[2,3-c]quinolin]-8′-yl)pyridin-3-yl)methanesulfonamide]	9.00 to 9.30	7.00 to 9.00
